In patent publication US12139508B2, “Steroid derivative regulators, method for preparing the same, and uses thereof” (JIANGSU HANSOH PHARMACEUTICAL GROUP CO., LTD., priority 2018, dated 2024):

These molecules were tested against GABA-A receptor (assay: 35S-TBPS binding assay (GABAA receptor binding ability test)). Details: rat cerebral cortex cell membrane, 5 μM GABA, 2 nM 35S-TBPS; read-out: 35S-TBPS bindng test: IC50 on inhibiting the TBPS binding activity.
Design: species or system Sprague-Dawley rat
Procedure: 1.2 Experimental Procedures 1.2.1 Extraction of Cerebral Cortex Cell Membrane:
1. The cerebral cortex of male Sprague-Dawley rat was isolated.
2. A pre-chilled 0.32 M sucrose solution (one tablet of protease inhibitor was added per 100 ml) was added to the cerebral cortex (the volume of sucrose solution was 10 times the volume of the cerebral cortex). The mixture was crushed with a 50 mL glass tissue homogenizer in batches and mixed well.
3. The mixture was centrifuged at 1500 g, 4° C. for 10 minutes, and the supernatant was collected.
4. The mixture was centrifuged at 20000 g, 4° C. for 30 minutes, and the supernatant was discarded.
5. The precipitate was resuspended with the pre-chilled phosphate buffer saline (PBS) (one tablet of protease inhibitor was added per 100 ml). An average of 4 ml of PBS was added per rat, and the mixture was mixed well by a glass tissue homogenizer.
6. The mixture was centrifuged at 10000 g, 4° C. for 10 minutes, and the supernatant was discarded.
7. Steps 5 and 6 were repeated three times.
8. Finally, the precipitate was resuspended with 4 volumes of PBS. The resulting solution was dispensed, frozen in liquid nitrogen, and stored at −80° C.
9. The protein concentration was measured by the bicinchoninic acid (BCA) method.
1.2.2 ^35S-TBPS Binding Assay
1. 230 μL of PBS was added to each well of a well plate with 1.1 ml volume.
2. 60 μL of the cerebral cortex cell membrane (5 μg/μL) solution was added to each well, and the mixture was mixed well.
3. The test compound (3 μL per well) was added, and the plate was incubated at 25° C. for 5 minutes. The DMSO concentration was 1%. The initial compound concentration was 1 μM, and a 3-fold dilution in gradient was carried out to obtain a total of 8 gradients and 2 replicates. 1% DMSO was used as a negative control, and 10 μM P026-2 was used as a positive control.
4. GABA was added at a final concentration of 5 μM, and incubated at 25° C. for 5 minutes. 1 mM GABA solution was formulated, and 1.5 μL of the solution was added to each well.
5. ^35S-TBPS was added at a final concentration of 2 nM. The concentration of isotope mother solution was 9.7 μM. After dilution with PBS for 100 times, 6 μL of the diluted isotope solution was added to each well.
6. The plate was incubated at 4° C. for 20 hours.
7. The FilterMate GF/C plate was pre-treated with 0.5% PEI, and incubated at 4° C. for 1 hour.
8. The FilterMate GF/C plate was washed with Universal Harvester twice, 50 ml PBS each time.
9. The reaction solution was transferred to the GF/C plate, and each well was washed 4 times with 900 μL of PBS.
10. The washed GF/C plate was placed at 55° C. and dried for 10 minutes.
11. 40 μL of scintillation solution was added to each well, and the CPM value was read with TopCount.
1.2.3 Experimental Data Processing Method:
In the experiment, the CPM (counts per minute) value was read with TopCount. According to the readings of the High control (DMSO) and the Low control ([…] of the positive compound) experimental groups, the […] inhibition was calculated based on the following formula: % Inhibition=100×(CPMHigh control−CPMSample)/(CPMHigh control−CPMLow control)
The IC50 of the compound was calculated according to the following 4-parameter nonlinear logic formula: Y=Bottom+(Top−Bottom)/(1+10^((Log IC50−X)*Hill Slope)),
wherein: • X represents the log of compound concentration, • Y represents the 0 Inhibition.
The effect of the compound of the present invention on the TBPS binding activity was determined by the above test, and the measured IC50 values are shown in Table 1.

| Compound | IC50 |
| --- | --- |
| C[C@@]1(O)CC[C@H]2[C@H](CC[C@@H]3[C@@H]2CC[C@@]2(C)[C@H]3[C@@H]3C[C@@H]3[C@@H]2C(=O)Cn2nnc3ccc(F)cc32)C1 [Example 93B, 2-(6-Fluoro-1H-benzo[d][1,2,3]triazol-1-yl)-1-((2R,4aS,4bR,6aS,7S,7aS,8aR,8bR,8cR,10aR)-2-hydroxy-2,6a-dimethyloctadecahydrocyclopropa[4,5]cyclopenta[1,2-a]phenanthren-7-yl)ethan-1-one] | 3 nM |
| C[C@@]1(O)CC[C@H]2[C@H](CC[C@@H]3[C@@H]2CC[C@@]2(C)[C@H]3[C@@H]3C[C@@H]3[C@@H]2C(=O)Cn2ncc(C#N)c2C2CC2)C1 [Example 34, 5-Cyclopropyl-1-(2-((2R,4aS,4bR,6aS,7S,7aS,8aR,8bR,8cR,10aR)-2-hydroxy-2,6a-dimethyloctadecahydrocyclopropa[4,5]cyclopenta[1,2-a]phenanthren-7-yl)-2-oxoethyl)-1H-pyrazole-4-carbonitrile] | 28.1 nM |
| C[C@@H]1C[C@H](C(=O)Cn2cc(C(=O)N3CCC3)cn2)[C@@]2(C)CC[C@H]3[C@@H](CC[C@@H]4C[C@](C)(O)CC[C@@H]43)[C@H]12 [Example 133, 2-(4-(Azetidine-1-carbonyl)-1H-pyrazol-1-yl)-1-((3R,5R,8R,9R,10S,13S,14S,15R,17S)-3-hydroxy-3,13,15-trimethylhexadecahydro-1H-cyclopenta[a]phenanthren-17-yl)ethan-1-one] | 17.8 nM |
| C[C@@H]1C[C@H](C(=O)COc2cnc(C(F)(F)F)nc2)[C@@]2(C)CC[C@H]3[C@@H](CC[C@@H]4C[C@](C)(O)CC[C@@H]43)[C@H]12 [Example 150, 1-((3R,5R,8R,9R,10S,13S,14S,15R,17S)-3-Hydroxy-3,13,15-trimethylhexadecahydro-1H-cyclopenta[a]phenanthren-17-yl)-2-((2-(trifluoromethyl)pyrimidin-5-yl)oxy)ethan-1-one] | 8.8 nM |
| C[C@@]1(O)CC[C@H]2[C@H](CC[C@@H]3[C@@H]2CC[C@@]2(C)[C@H]3[C@@H]3C[C@@H]3[C@@H]2C(=O)Cn2nccn2)C1 [Example 7, 1-((2R,4aS,4bR,6aS,7S,7aS,8aR,8bR,8cR,10aR)-2-Hydroxy-2,6a-dimethyloctadecahydrocyclopropa[4,5]cyclopenta[1,2-a]phenanthren-7-yl)-2-(2H-1,2,3-triazol-2-yl)ethan-1-one] | 14.7 nM |
| C[C@@]1(O)CC[C@H]2[C@H](CC[C@@H]3[C@@H]2CC[C@@]2(C)[C@H]3[C@@H]3C[C@@H]3[C@@H]2C(=O)Cn2cc(F)cn2)C1 [Example 46, 2-(4-Fluoro-1H-pyrazol-1-yl)-1-((2R,4aS,4bR,6aS,7S,7aS,8aR,8bR,8cR,10aR)-2-hydroxy-2,6a-dimethyloctadecahydrocyclopropa[4,5]cyclopenta[1,2-a]phenanthren-7-yl)ethan-1-one] | 28.7 nM |
| COc1ccc2c(c1)nnn2CC(=O)[C@H]1[C@H]2C[C@H]2[C@H]2[C@@H]3CC[C@@H]4C[C@](C)(O)CC[C@@H]4[C@H]3CC[C@@]21C [Example 54B, 1-((2R,4aS,4bR,6aS,7S,7aS,8aR,8bR,8cR,10aR)-2-Hydroxy-2,6a-dimethyloctadecahydrocyclopropa[4,5]cyclopenta[1,2-a]phenanthren-7-yl)-2-(5-methoxy-1H-benzo[d][1,2,3]triazol-1-yl)ethan-1-one] | 11.8 nM |
| C[C@@]1(O)CC[C@H]2[C@H](CC[C@@H]3[C@@H]2CC[C@@]2(C)[C@H]3[C@@H]3C[C@@H]3[C@@H]2C(=O)COc2ccc(C#N)cc2F)C1 [Example 125, 3-Fluoro-4-(2-((2R,4aS,4bR,6aS,7S,7aS,8aR,8bR,8cR,10aR)-2-hydroxy-2,6a-dimethyloctadecahydrocyclopropa[4,5]cyclopenta[1,2-a]phenanthren-7-yl)-2-oxoethoxy)benzonitrile] | 30.7 nM |
| C[C@@]1(O)CC[C@H]2[C@H](CC[C@@H]3[C@@H]2CC[C@@]2(C)[C@H]3[C@@H]3C[C@@H]3[C@@H]2C(=O)Cn2cc(C(=O)N3CC(F)(F)C3)cn2)C1 [Example 52] | 65 nM |
| CC[C@@H]1C[C@H](C(=O)Cn2nnc(C)n2)[C@@]2(C)CC[C@H]3[C@@H](CC[C@@H]4C[C@](C)(O)CC[C@@H]43)[C@H]12 [Example 139, 1-((3R,5R,8R,9R,10S,13S,14S,15R,17S)-15-Ethyl-3-hydroxy-3,13-dimethylhexadecahydro-1H-cyclopenta[a]phenanthren-17-yl)-2-(5-methyl-2H-tetrazol-2-yl)ethan-1-one] | 27 nM |
| C[C@@]1(O)CC[C@H]2[C@H](CC[C@@H]3[C@@H]2CC[C@@]2(C)[C@H]3[C@@H]3C[C@@H]3[C@@H]2C(=O)Cn2cc(Cl)cn2)C1 [Example 18, 2-(4-Chloro-1H-pyrazol-1-yl)-1-((2R,4aS,4bR,6aS,7S,7aS,8aR,8bR,8cR,10aR)-2-hydroxy-2,6a-dimethyloctadecahydrocyclopropa[4,5]cyclopenta[1,2-a]phenanthren-7-yl)ethan-1-one] | 6.4 nM |
| CCOC(=O)c1cnn(CC(=O)[C@H]2[C@H]3C[C@H]3[C@H]3[C@@H]4CC[C@@H]5C[C@](C)(O)CC[C@@H]5[C@H]4CC[C@@]32C)c1 [Example 51, Ethyl 1-(2-((2R,4aS,4bR,6aS,7S,7aS,8aR,8bR,8cR,10aR)-2-hydroxy-2,6a-dimethyloctadecahydrocyclopropa[4,5]cyclopenta[1,2-a]phenanthren-7-yl)-2-oxoethyl)-1H-pyrazole-4-carboxylate] | 5 nM |
| COc1ccc2nn(CC(=O)[C@H]3[C@H]4C[C@H]4[C@H]4[C@@H]5CC[C@@H]6C[C@](C)(O)CC[C@@H]6[C@H]5CC[C@@]43C)nc2c1 [Example 53, 1-((2R,4aS,4bR,6aS,7S,7aS,8aR,8bR,8cR,10aR)-2-Hydroxy-2,6a-dimethyloctadecahydrocyclopropa[4,5]cyclopenta[1,2-a]phenanthren-7-yl)-2-(5-methoxy-2H-benzo[d][1,2,3]triazol-2-yl)ethan-1-one] | 12.3 nM |
| Cc1c(C#N)cnn1CC(=O)[C@H]1[C@H]2C[C@H]2[C@H]2[C@@H]3CC[C@@H]4C[C@](C)(O)CC[C@@H]4[C@H]3CC[C@@]21C [Example 37B, 1-(2-((2R,4aS,4bR,6aS,7S,7aS,8aR,8bR,8cR,10aR)-2-Hydroxy-2,6a-dimethyloctadecahydrocyclopropa[4,5]cyclopenta[1,2-a]phenanthren-7-yl)-2-oxoethyl)-5-methyl-1H-pyrazole-4-carbonitrile] | 15.4 nM |
| C[C@@]1(O)CC[C@H]2[C@H](CC[C@@H]3[C@@H]2CC[C@@]2(C)[C@H]3[C@@H]3C[C@@H]3[C@@H]2C(=O)CNc2ccc(F)cc2)C1 [Example 97, 2-((4-Fluorophenyl)amino)-1-((2R,4aS,4bR,6aS,7S,7aS,8aR,8bR,8cR,10aR)-2-hydroxy-2,6a-dimethyloctadecahydrocyclopropa[4,5]cyclopenta[1,2-a]phenanthren-7-yl)ethan-1-one] | 30.2 nM |
| C[C@@]1(O)CC[C@H]2[C@H](CC[C@@H]3[C@@H]2CC[C@@]2(C)[C@H]3[C@H](C3CC3)C[C@@H]2C(=O)COc2cnc(C(F)(F)F)nc2)C1 [Example 151, 1-((3R,5R,8R,9R,10S,13S,14S,15S,17S)-15-Cyclopropyl-3-hydroxy-3,13-dimethylhexadecahydro-1H-cyclopenta[a]phenanthren-17-yl)-2-((2-(trifluoromethyl)pyrimidin-5-yl)oxy)ethan-1-one] | 26.2 nM |
